Reference: ChEMBL document CHEMBL5352417, “Design, synthesis, and biological evaluation of aromatic tertiary amine derivatives as selective butyrylcholinesterase inhibitors for the treatment of Alzheimer's disease” (Eur J Med Chem, 2022)
Calls of active or inactive are those of the source. The rule behind the calls is not given here.

What was measured:
[1] = molecular target: Cholinesterase (Equus caballus) (UniProt P81908); assay: Inhibition of horse serum BuChE using butyrylthiocholine iodide as substrate at <10 uM measured for 3 mins by Ellman's method relative to control; format: cell-free
Cholinesterase [2] = molecular target: Cholinesterase (Equus caballus, UniProt P81908); assay: Inhibition of horse serum BuChE using butyrylthiocholine iodide as substrate measured for 3 mins by Ellman's method; format: cell-free
[3] = molecular target: Acetylcholinesterase (Electrophorus electricus) (UniProt O42275); assay: Inhibition of electric eel AchE using acetylthiocholine iodide as substrate at <10 uM measured for 3 mins by Ellman's method relative to control
[4] = Effective permeability of compound at 25 ug/ml incubated for 18 hrs by PAMPA-BBB assay; format: ADME; conditions: dose 25 µg/ml, read-out: Peff
[5] = Neurotoxicity against mouse HT-22 cells assessed as survival rate incubated for 24 hrs by MTT assay relative to control; format: toxicity, cell-based; parameters: concentration or dose not given beside the values; conditions: read-out: Survival
[6] = Neurotoxicity against rat PC12 cells assessed as survival rate incubated for 24 hrs by MTT assay relative to control; format: toxicity, cell-based, PC-12; parameters: concentration or dose not given beside the values; conditions: read-out: Survival
[7] = Neurotoxicity against human SH-SY5Y cells assessed as survival rate incubated for 24 hrs by MTT assay relative to control; format: toxicity, cell-based; parameters: concentration or dose not given beside the values; conditions: read-out: Survival
[8] = Neurotoxicity against mouse BV-2 cells incubated for 24 hrs by MTT assay; format: toxicity, cell-based; conditions: read-out: LD50
SH-SY5Y = assay: Neuroprotective activity against amyloid beta (1 to 42)-induced injury in human SH-SY5Y cells assessed as cell viability at 0.5 to 50 uM by MTT assay; format: functional, cell-based; conditions: dose 0.5-50 µM
Mus musculus [9] = assay: Antialzheimer activity against amyloid beta (1 to 42)-induced mouse model of cognitive dysfunction assessed as latency time at 15 mg/kg, po measured for 14 days by Morris Water maze method; format: functional, ICR; conditions: time 14 day
Mus musculus [10] = assay: Antialzheimer activity against amyloid beta (1 to 42)-induced mouse model of cognitive dysfunction assessed as reaching target platform at 15 mg/kg, po measured for 14 days by Morris Water maze method; format: functional, organism-based; conditions: ICR, time 14.0 day
Cholinesterase [11] = molecular target: Cholinesterase (Homo sapiens, UniProt P06276); assay: Inhibition of human BChE using butyrylthiocholine iodide as substrate measured for 3 mins by Ellman's method
[12] = Neurotoxicity against human SH-SY5Y cells incubated for 24 hrs by MTT assay; format: toxicity, cell-based; conditions: read-out: LD50
[13] = Neurotoxicity against rat PC12 cells incubated for 24 hrs by MTT assay; format: toxicity, cell-based, PC-12; conditions: read-out: LD50
[14] = Neurotoxicity against mouse HT-22 cells incubated for 24 hrs by MTT assay; format: toxicity, cell-based; conditions: read-out: LD50
Cholinesterase [15] = molecular target: Cholinesterase (Mus musculus, UniProt Q03311)
Description: Inhibition of mouse BChE by Ellman's method

Mus musculus [16] = assay: Antialzheimer activity against amyloid beta (1 to 42)-induced mouse model of cognitive dysfunction assessed as reduction in latency time at 15 mg/kg, po measured for 14 days by Morris Water maze method; format: functional, organism-based; conditions: ICR, time 14.0 day

Cholinesterase (Equus caballus), sequence (P81908 whole entry): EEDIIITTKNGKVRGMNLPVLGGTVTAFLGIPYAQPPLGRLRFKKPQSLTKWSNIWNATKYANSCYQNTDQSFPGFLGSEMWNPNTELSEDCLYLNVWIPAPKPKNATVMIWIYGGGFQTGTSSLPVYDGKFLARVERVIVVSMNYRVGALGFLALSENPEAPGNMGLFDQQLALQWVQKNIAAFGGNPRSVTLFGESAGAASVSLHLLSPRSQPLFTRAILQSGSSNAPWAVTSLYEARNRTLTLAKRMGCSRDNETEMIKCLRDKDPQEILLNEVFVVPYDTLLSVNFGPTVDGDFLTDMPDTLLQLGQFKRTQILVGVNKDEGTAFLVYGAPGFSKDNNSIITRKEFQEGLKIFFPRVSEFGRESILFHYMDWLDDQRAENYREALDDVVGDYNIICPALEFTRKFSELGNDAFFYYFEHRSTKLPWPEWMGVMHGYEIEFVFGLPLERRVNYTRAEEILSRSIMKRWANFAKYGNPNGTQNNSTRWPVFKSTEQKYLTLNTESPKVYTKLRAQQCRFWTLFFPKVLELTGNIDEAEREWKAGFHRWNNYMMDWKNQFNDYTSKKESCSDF
Cholinesterase (Equus caballus, UniProt P81908), sequence (P81908 whole entry): as above
Acetylcholinesterase (Electrophorus electricus), sequence (O42275 24-633 limits assumed): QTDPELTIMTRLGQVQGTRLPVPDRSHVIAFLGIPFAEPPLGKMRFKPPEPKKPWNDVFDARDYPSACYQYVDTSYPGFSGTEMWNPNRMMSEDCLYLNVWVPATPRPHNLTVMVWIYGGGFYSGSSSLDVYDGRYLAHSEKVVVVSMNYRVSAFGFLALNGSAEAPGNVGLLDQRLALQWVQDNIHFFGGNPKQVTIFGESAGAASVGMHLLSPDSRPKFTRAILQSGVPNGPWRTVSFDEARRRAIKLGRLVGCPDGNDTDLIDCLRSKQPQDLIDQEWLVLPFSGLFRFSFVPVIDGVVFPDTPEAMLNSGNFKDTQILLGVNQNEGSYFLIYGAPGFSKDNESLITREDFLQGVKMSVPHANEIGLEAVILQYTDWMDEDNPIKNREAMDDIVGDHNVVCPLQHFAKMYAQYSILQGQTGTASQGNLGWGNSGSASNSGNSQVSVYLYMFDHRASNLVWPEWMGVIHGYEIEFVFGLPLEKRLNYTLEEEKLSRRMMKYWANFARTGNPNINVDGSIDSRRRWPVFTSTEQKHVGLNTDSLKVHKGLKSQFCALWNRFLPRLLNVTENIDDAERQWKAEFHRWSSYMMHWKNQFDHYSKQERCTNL
Cholinesterase (Homo sapiens, UniProt P06276), sequence (P06276 whole entry): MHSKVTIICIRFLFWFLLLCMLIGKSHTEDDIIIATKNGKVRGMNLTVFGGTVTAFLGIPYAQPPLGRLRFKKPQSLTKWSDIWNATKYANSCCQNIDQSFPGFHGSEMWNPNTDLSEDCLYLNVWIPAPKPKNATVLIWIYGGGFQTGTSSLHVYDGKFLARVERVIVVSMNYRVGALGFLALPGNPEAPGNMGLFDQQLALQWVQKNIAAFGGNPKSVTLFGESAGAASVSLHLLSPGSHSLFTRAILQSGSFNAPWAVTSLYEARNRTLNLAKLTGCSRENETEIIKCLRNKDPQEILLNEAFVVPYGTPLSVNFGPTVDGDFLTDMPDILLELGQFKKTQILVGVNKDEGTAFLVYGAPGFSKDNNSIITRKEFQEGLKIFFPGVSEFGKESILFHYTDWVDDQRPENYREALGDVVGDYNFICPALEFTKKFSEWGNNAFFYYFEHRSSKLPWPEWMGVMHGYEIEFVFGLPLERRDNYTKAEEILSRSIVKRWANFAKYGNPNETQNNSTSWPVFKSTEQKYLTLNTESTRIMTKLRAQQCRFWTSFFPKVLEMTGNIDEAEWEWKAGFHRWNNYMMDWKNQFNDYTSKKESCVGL
Cholinesterase (Mus musculus, UniProt Q03311), sequence (Q03311 whole entry): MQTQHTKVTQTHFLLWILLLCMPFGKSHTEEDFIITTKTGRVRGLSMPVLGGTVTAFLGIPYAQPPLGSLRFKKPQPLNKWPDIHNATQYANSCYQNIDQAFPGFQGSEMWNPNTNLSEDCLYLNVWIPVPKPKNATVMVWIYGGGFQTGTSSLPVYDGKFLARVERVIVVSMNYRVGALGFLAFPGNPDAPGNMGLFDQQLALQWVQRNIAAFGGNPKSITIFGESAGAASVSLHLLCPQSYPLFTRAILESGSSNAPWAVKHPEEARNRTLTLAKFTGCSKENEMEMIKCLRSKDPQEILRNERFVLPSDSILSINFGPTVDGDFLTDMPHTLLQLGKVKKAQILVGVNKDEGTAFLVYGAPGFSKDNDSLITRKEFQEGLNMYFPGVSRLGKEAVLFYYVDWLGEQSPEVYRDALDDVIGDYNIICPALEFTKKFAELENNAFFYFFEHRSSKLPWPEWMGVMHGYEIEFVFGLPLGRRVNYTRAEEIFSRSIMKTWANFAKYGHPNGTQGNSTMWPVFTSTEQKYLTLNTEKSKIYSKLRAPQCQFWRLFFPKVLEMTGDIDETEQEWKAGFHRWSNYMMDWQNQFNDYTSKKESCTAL

Row | SMILES | inhibition [1] [%] | IC50 (Cholinesterase [2]) [µM] | inhibition [3] [%] | also measured
1 | O=C(CN(Cc1ccccc1)Cc1ccco1)Nc1cnc2ccccc2c1 | 29.6 | 27.9 | 13.2 | –
2 | C[C@]12CC[C@@H]3c4ccc(O)cc4CC[C@H]3[C@@H]1CC[C@@H]2O [ESTRADIOL] | – | – | – | Papp at 18 h, 25 ug/ml [4]: 14.6 ×10⁻⁶ cm/s
3 | O=C(CN(Cc1ccccc1)Cc1ccco1)Nc1cccc2ccccc12 | 63 | 3.53 | 13.6 | –
4 | O=C(CN(Cc1ccccc1)Cc1ccco1)Nc1cccc(F)c1 | 47 | 31.7 | 17.3 | –
5 | N#Cc1ccc(NC(=O)CN(Cc2ccccc2)Cc2ccco2)cc1 | 28.6 | 710 | 9.68 | –
6 | O=C(CN(Cc1ccc2ccccc2c1)Cc1ccco1)Nc1ccccc1 | 62.9 | 2.26 | 16.9 | viability at 24 h [5]: 86.5%; viability at 24 h [6]: 100%; viability at 24 h [7]: 90.7%; Papp at 18 h, 25 ug/ml [4]: 7.81 ×10⁻⁶ cm/s; CC50 at 24 h [8]: 14 µM
7 | O=C(CN(Cc1ccco1)Cc1ccco1)Nc1ccccc1 | 47.3 | 7.81 | 12.6 | –
8 | CCCCN(CCCc1ccccc1)Cc1ccc2ccccc2c1 | 89 | 0.23 | 23 | viability at 24 h [5]: 51.2%; Activity (SH-SY5Y): inactive; Time (Mus musculus [9]): 14.4 s; Activity (Mus musculus [10]): Active; viability at 24 h [6]: 51.9%; viability at 24 h [7]: 85.5%; Papp at 18 h, 25 ug/ml [4]: 10.1 ×10⁻⁶ cm/s; CC50 at 24 h [8]: 34.4 µM; IC50 (Cholinesterase [11]): 0.011 µM
9 | Cc1cccc(NC(=O)CN(Cc2ccc3ccccc3c2)Cc2ccco2)c1 | 70.5 | 1.74 | 15.1 | viability at 24 h [5]: 91.4%; viability at 24 h [6]: 105%; viability at 24 h [7]: 91.7%; Papp at 18 h, 25 ug/ml [4]: 9.07 ×10⁻⁶ cm/s; CC50 at 24 h [8]: 24.9 µM
10 | O=C(CN(Cc1ccccc1)Cc1ccco1)Nc1ccc2ccccc2c1 | 50.4 | 9.77 | 13.9 | –
11 | O=C(CN(Cc1ccccc1)Cc1ccco1)Nc1ccc(C(F)(F)F)cc1 | 50.9 | 6.8 | 13.4 | –
12 | O=C(CN(Cc1ccccc1)Cc1ccco1)Nc1ccc(F)cc1 | 47.1 | 28.3 | 14.5 | –
13 | O=C(CN(Cc1ccccc1)Cc1ccco1)Nc1ccccc1Cl | 50.5 | 9.96 | 17.5 | –
14 | Cc1ccccc1NC(=O)CN(Cc1ccccc1)Cc1ccco1 | 54.7 | 5.46 | 14.2 | –
15 | Cc1ccccc1NC(=O)CN(Cc1ccc2ccccc2c1)CC(C)(C)C | 64.6 | 4.1 | 19.6 | –
16 | Cc1cccc(NC(=O)CN(Cc2ccco2)Cc2c[nH]c3ccccc23)c1 | 55.2 | 6.61 | 14.3 | –
17 | CCN(CC)CCN(CC(=O)Nc1ccccc1C)Cc1ccc2ccccc2c1 | 85.6 | 1.45 | 20.1 | CC50 at 24 h [12]: 50.8 µM; Activity (SH-SY5Y): inactive; CC50 at 24 h [13]: 40.6 µM; CC50 at 24 h [14]: 85.1 µM; Papp at 18 h, 25 ug/ml [4]: 10.6 ×10⁻⁶ cm/s; CC50 at 24 h [8]: 24.2 µM; IC50 (Cholinesterase [11]): 0.29 µM
18 | CCCN(CCCc1ccccc1)Cc1ccc2ccccc2c1 | 80.3 | 1.45 | 21.4 | CC50 at 24 h [13]: 77.8 µM; CC50 at 24 h [14]: 54.6 µM; viability at 24 h [7]: 62.6%; Papp at 18 h, 25 ug/ml [4]: 10.3 ×10⁻⁶ cm/s; CC50 at 24 h [8]: 29 µM; IC50 (Cholinesterase [11]): 0.03 µM
19 | COc1ccc(NC(=O)CN(Cc2ccccc2)Cc2ccco2)cc1 | 21.6 | 121 | 18.2 | –
20 | CCCN(CC(=O)Nc1ccccc1C)Cc1ccc2ccccc2c1 | 91.3 | 0.19 | 22.9 | viability at 24 h [5]: 51.6%; CC50 at 24 h [13]: 45.9 µM; viability at 24 h [7]: 52.8%; Papp at 18 h, 25 ug/ml [4]: 11.9 ×10⁻⁶ cm/s; CC50 at 24 h [8]: 17.6 µM; IC50 (Cholinesterase [11]): 0.027 µM
21 | Cc1cccc(NC(=O)CN(Cc2ccccc2)Cc2ccco2)c1C | 61.9 | 2.67 | 19.7 | CC50 at 24 h [12]: 35 µM; CC50 at 24 h [13]: 32.1 µM; CC50 at 24 h [14]: 46.8 µM; Papp at 18 h, 25 ug/ml [4]: 9.47 ×10⁻⁶ cm/s; CC50 at 24 h [8]: 16.6 µM
22 | O=C(CN(Cc1ccccc1)Cc1ccco1)Nc1cccc(Br)c1 | 54.7 | 6.23 | 13.4 | –
23 | O=C(CN(Cc1ccccc1)Cc1ccco1)Nc1ccc2c(c1)OCO2 | 57.3 | 8.26 | 15.2 | –
24 | Cc1ccc(NC(=O)CN(Cc2ccccc2)Cc2ccco2)cc1 | 37.5 | 149 | 12.8 | –

Row | SMILES | inhibition [1] [%] | IC50 (Cholinesterase [2]) [µM] | inhibition [3] [%] | also measured
25 | COCCN(CC1CCCN(Cc2ccccc2)C1)S(=O)(=O)c1ccc2ccccc2c1 (centres undefined) | – | – | – | IC50 (Cholinesterase [15]): > 10 µM
26 | COc1cc(NC(=O)CN(Cc2ccccc2)Cc2ccco2)cc(OC)c1OC | 18.9 | 52.3 | 16.1 | –
27 | Cc1ccccc1NC(=O)CN(Cc1ccc2ccccc2c1)C1CCCCC1 | 57.5 | 4.26 | 25.3 | –
28 | Cc1ccccc1NC(=O)CN(Cc1ccc2ccccc2c1)Cc1ccco1 | 70.6 | 1.22 | 15.9 | viability at 24 h [5]: 67.1%; viability at 24 h [6]: 67.3%; viability at 24 h [7]: 69.4%; Papp at 18 h, 25 ug/ml [4]: 5.67 ×10⁻⁶ cm/s; CC50 at 24 h [8]: 10.9 µM
29 | CC(C)CN(CCCc1ccccc1)Cc1ccc2ccccc2c1 | 54.7 | 4.04 | 19.4 | viability at 24 h [5]: 83.5%; viability at 24 h [6]: 86.3%; viability at 24 h [7]: 155%; Papp at 18 h, 25 ug/ml [4]: 9.87 ×10⁻⁶ cm/s; CC50 at 24 h [8]: 48.7 µM; IC50 (Cholinesterase [11]): 0.024 µM
30 | O=C(CN(Cc1ccccc1)Cc1ccco1)Nc1cccc(F)c1F | 50.1 | 13.3 | 18 | –
31 | Cc1cccc(NC(=O)CN(Cc2ccccc2)Cc2ccco2)c1 | 57.8 | 7.33 | 13.3 | –
32 | CN(C)CCCN1c2ccccc2Sc2ccc(Cl)cc21 [CHLORPROMAZINE] | – | – | – | Papp at 18 h, 25 ug/ml [4]: 6.69 ×10⁻⁶ cm/s
33 | COc1cc2c(cc1OC)C(=O)C(CC1CCN(Cc3ccccc3)CC1)C2 (centres undefined) | – | – | – | Activity (Mus musculus [16]): Active
34 | O=C(CN(Cc1ccccc1)Cc1ccco1)Nc1cccc(Cl)c1 | 42.8 | 47.4 | 19.6 | –
35 | c1ccc(CCCN(Cc2ccc3ccccc3c2)Cc2ccco2)cc1 | 42.5 | 15.7 | 13.4 | –
36 | O=C(CN(Cc1ccccc1)Cc1ccco1)Nc1ccccc1 | 39.6 | 15.4 | 12.6 | –
37 | Cc1cccc(NC(=O)CN(Cc2ccco2)Cc2c[nH]c3ccccc23)c1C | 52.3 | 10.9 | 18.2 | –
38 | Cc1ccccc1NC(=O)CN(Cc1ccco1)Cc1c[nH]c2ccccc12 | 64.7 | 4.39 | 14.2 | –
39 | Cc1cccc(NC(=O)CN(Cc2ccc3ccccc3c2)Cc2ccco2)c1C | 48.1 | 11 | 15.3 | –
40 | O=C(CN(Cc1ccco1)Cc1ccccc1[N+](=O)[O-])Nc1ccccc1 | 61.9 | 1.3 | 15.8 | Papp at 18 h, 25 ug/ml [4]: 4.93 ×10⁻⁶ cm/s
41 | CCCCN(CC(=O)Nc1ccccc1C)Cc1ccc2ccccc2c1 | 77.9 | 1.48 | 21.9 | viability at 24 h [5]: 83.1%; CC50 at 24 h [12]: 70.2 µM; viability at 24 h [6]: 49.1%; Papp at 18 h, 25 ug/ml [4]: 13.9 ×10⁻⁶ cm/s; CC50 at 24 h [8]: 19 µM; IC50 (Cholinesterase [11]): 0.18 µM
42 | COc1cccc(NC(=O)CN(Cc2ccccc2)Cc2ccco2)c1 | 50.1 | 24.8 | 9.2 | –
43 | N#Cc1ccccc1NC(=O)CN(Cc1ccccc1)Cc1ccco1 | 36.6 | 118 | 10.3 | –
44 | O=C(CN(Cc1ccco1)Cc1cccc2ccccc12)Nc1ccccc1 | 47.1 | 21.7 | 19.6 | –
45 | O=C(CN(Cc1ccccc1)Cc1ccco1)Nc1ccccc1F | 50.9 | 8.86 | 14.1 | –
46 | O=C(CN(Cc1ccco1)Cc1c[nH]c2ccccc12)Nc1ccccc1 | 65.3 | 2.14 | 26.2 | CC50 at 24 h [12]: 42.2 µM; CC50 at 24 h [13]: 40.4 µM; CC50 at 24 h [14]: 59.6 µM; Papp at 18 h, 25 ug/ml [4]: 7.3 ×10⁻⁶ cm/s; CC50 at 24 h [8]: 27.5 µM
47 | COc1ccccc1NC(=O)CN(Cc1ccccc1)Cc1ccco1 | 44.2 | 26.4 | 14.7 | –
